Reference: patent publication US20240018146A1, “COMPOSITIONS AND METHODS OF USING THE SAME FOR TREATMENT OF NEURODEGENERATIVE AND MITOCHONDRIAL DISEASE” (MITOKININ, INC., priority 2020, published 2024)
Read-outs that look alike come from different tables or passages of the source.

Legend:
Type in all cases: cell-based
HeLa MKYP cells [1] = experiment: Cell death measured by DAPI staining, with 1 μM FCCP/oligomycin or no toxin (no FO); details: for Max cell death at 25 μM compound, 1 uM FO (%) / Cell death at 25 μM (no FO) (%): 25 μM compound
How it was run: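 HeLa MKYP cells were treated with compounds alongside 1 μM FCCP/oligomycin or no toxin for 6 or 6.5 h. Cell death was scored by DAPI staining, with H2O2 treatment as the death control.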

[2] = Mitotoxicity / Mitotox safety margin (therapeutic window)
HeLa MKYP cells [3] = experiment: Human mitophagy assay (HeLa mKeima assay, FACS)
How it was run: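 HeLa cells carrying the pH-sensitive mtKeima tag incubated 16 h with compound at several concentrations, then 1 uM FCCP/oligomycin for 6 h. FACS detects mitochondria in lysosomes through the Keima emission shift, quantified as percentage of cells in mitophagy.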

[4] = Homo sapiens, HeLa, read-out: Mitophagy induction EC50
[5] = read-out: Mitophagy induction EC50
[6] = Homo sapiens, HeLa, HeLa mKeima assay, read-out: Mitophagy EC50 (HeLa mKeima assay)

SMILES	Highest safe dose (cytotoxicity; no FO; safe means DAPI+ <20%) (HeLa MKYP cells [1]) [µM]	Max % death with 1 μM FO (HeLa MKYP cells [1]) [%]	Mito-Safety Index (highest safe dose/EC50) [2]	Highest safe dose (μM) (mitotox or cytotox) [2] [µM]	EC50 (HeLa MKYP cells [3]; [4]) [nM]	EC50 (HeLa MKYP cells [3]; [5]) [nM]	Max cell death at 25 μM compound, 1 uM FO (%) (HeLa MKYP cells [1])	Cell death at 25 μM (no FO) (%) (HeLa MKYP cells [1])	Mitotox safety margin (Therapeutic window) [2]	EC50 (HeLa MKYP cells [3]; [6]) [nM]
Fc1cccc2c1CC[C@@H](N1C[C@H]3COC[C@H]3C1)[C@@H]2Nc1ncnc2[nH]c(C(F)(F)F)cc12 (single isomer, unassigned) [EP-0040506]	25.0	41.0	44.10	2.2	50	–	–	–	–	–
FC(F)(F)c1cc2c(N[C@H]3c4ccccc4OC[C@@H]3C3CCOCC3)ncnc2[nH]1 [EP-0040583]	25.0	17.8	104.01	25.0	240	–	–	–	–	–
[2H]C([2H])([2H])OC1CN([C@H]2COc3ccccc3[C@@H]2Nc2ncnc3[nH]c(C(F)(F)F)cc23)C1 (single isomer, unassigned) [EP-0041326]	25.0	7.5	56.49	19.8	–	350	–	–	–	–
c1ccc2c(c1)CC[C@H](N1C[C@H]3COC[C@H]3C1)[C@H]2Nc1ncnc2[nH]c(C3CC3)cc12 [EP-0039713]	25.0	26.3	9.46	0.9	100	–	19.2	12.9	+ (+ = <10)	100
C[C@@H]1CN([C@H]2COc3ccccc3[C@@H]2Nc2ncnc3[nH]c(C4CC4)cc23)C[C@H](C)O1 (single isomer, unassigned) [EP-0040750]	25.0	27.7	43.07	2.3	50	–	–	–	–	–
C[C@@H]1CN([C@@H]2COc3ccccc3[C@H]2Nc2ncnc3[nH]c(C(F)(F)F)cc23)CCO1 [EP-0040956]	25.0	24.7	52.10	9.7	190	–	–	–	–	–
C[C@H]1CN([C@@H]2COc3cc(F)ccc3[C@H]2Nc2ncnc3[nH]c(C4CC4)cc23)CCO1 [EP-0041125]	25.0	9.6	45.69	7.4	160	–	–	–	–	–
C[C@@H]1CN([C@@H]2COc3cc(F)ccc3[C@H]2Nc2ncnc3[nH]c(C4CC4)cc23)C[C@H](C)O1 [EP-0040949]	25.0	21.1	114.83	1.2	10	–	–	–	–	–
C[C@@H]1CN([C@H]2CCc3ccccc3[C@@H]2Nc2ncnc3[nH]c(C4CC4)cc23)CCO1 (single isomer, unassigned) [EP-0040496]	25.0	15.6	82.87	1.3	20	–	–	–	–	–
CN(c1ncnc2[nH]c(C(F)(F)F)cc12)C1c2ccccc2CCC1N1C[C@H]2COC[C@H]2C1 (stereo partly shown) [EP-0039742]	25.0	20.4	7.45	25.0	3360	–	13.8	2.45	–	3330
FC(F)(F)c1cc2c(N[C@@H]3c4ccccc4OC[C@@H]3C3CCCOC3)ncnc2[nH]1 (single isomer, unassigned) [EP-0041005]	25.0	24.8	17.30	25.0	1450	–	–	–	–	–
FC(F)OC1CN([C@H]2COc3ccccc3[C@@H]2Nc2ncnc3[nH]c(C(F)(F)F)cc23)C1 (single isomer, unassigned) [EP-0041541]	25.0	19.1	28.61	8.3	290	–	–	–	–	–
CO[C@H]1CCN([C@H]2COc3ccccc3[C@@H]2Nc2ncnc3[nH]c(C4CC4)cc23)C1 [EP-0041517]	25.0	4.8	34.73	1.1	30	–	–	–	–	–
c1ccc2c(c1)CC[C@H](C1CCOCC1)[C@H]2Nc1ncnc2[nH]c(C3CC3)cc12 (single isomer, unassigned) [EP-0040582]	25.0	17.7	68.01	5.1	80	–	–	–	–	–
C[C@@H]1CN([C@H]2COc3cc(F)ccc3[C@@H]2Nc2ncnc3[nH]c(C4CC4)cc23)C[C@H](C)O1 [EP-0040948]	25.0	5.6	–	25.0	> 25000	–	–	–	–	–
COC1CN([C@H]2COc3ccccc3[C@@H]2Nc2ncnc3[nH]c(C4CC4)cc23)C1 [EP-0040702]	25.0	7.7	77.26	25.0	–	320	–	–	–	–
c1ccc2c(c1)OC[C@@H](C1CCOCC1)[C@@H]2Nc1ncnc2[nH]c(C3CC3)cc12 [EP-0040729]	25.0	17.1	52.06	3.2	60	–	–	–	–	–
Fc1ccc2c(c1)CC[C@H](N1C[C@H]3COC[C@@H]3C1)[C@H]2Nc1ncnc2[nH]c(C(F)(F)F)cc12 [EP-0040695]	25.0	20.7	89.34	9.1	100	–	–	–	–	–
CO[C@@H]1CCN([C@H]2COc3ccccc3[C@@H]2Nc2ncnc3[nH]c(C4CC4)cc23)C1 [EP-0041451]	25.0	6.5	87.93	0.7	10	–	–	–	–	–
C[C@@H]1CN([C@H]2COc3cc(F)ccc3[C@@H]2Nc2ncnc3[nH]c(C4CC4)cc23)C[C@H](C)O1 (single isomer, unassigned) [EP-0040842]	25.0	22.5	82.00	2.0	20	–	–	–	–	–
